The target in the test is WDR5 (Homo sapiens, UniProt P61964). The test is described as follows: Competition-based fluorescence polarization anisotropy assay. Particulars: binding to WDR5; displacement of FITC-labeled small molecule probe (analogous to Example J2 or HCH-25) or peptide probe FITC-AHx-SEEEIDVVSV; pH 6.0; Ki converted from IC50. A digest of the protocol:
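Ki values derive from displacement of either a fluorescent small-molecule probe or a FITC-peptide probe from WDR5, monitored by fluorescence polarization. Assay run at pH 6.0 in 200 mM phosphate with 300 mM NaCl, 0.5 mM TCEP and 0.1% Chaps.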
For orientation: Polarisation of emitted light reports the rotation of a fluorescent probe.

pKi: −log10 of the molar value.

By pKi is commonly meant −log10 of the Ki, conventionally taken in molar units. A high value points to a small Ki.

`O=C(O)c1cc(S(F)(F)(F)(F)F)cc(NS(=O)(=O)c2cc(Br)ccc2O)c1O` [Example S65, 3-((5-Bromo-2-hydroxyphenyl)sulfonamido)-2-hydroxy-5-(pentafluoro-λ^6-sulfaneyl)benzoic acid]: the pKi is 7.52.
For `O=C(NC1COC1)c1cc(C2CC2)cc(NS(=O)(=O)c2cc(Br)cc(Cl)c2O)c1F` [Example J159, 3-((5-Bromo-3-chloro-2-hydroxyphenyl)sulfonamido)-5-cyclopropyl-2-fluoro-N-(oxetan-3-yl)benzamide] the value was 6.21.
For `O=C(O)c1cc(Cl)cc(NS(=O)(=O)c2cc(Br)ccc2O)c1` [Example J66, 3-((5-Bromo-2-hydroxyphenyl)sulfonamido)-5-chlorobenzoic acid] the value was 5.45; for `O=C(O)c1cc(-c2ccsc2)cc(NS(=O)(=O)c2cc(Br)ccc2O)c1O` [Example J195, 3-((5-Bromo-2-hydroxyphenyl)sulfonamido)-2-hydroxy-5-(thiophen-3-yl)benzoic acid], 6.03.
The value for `O=C(NCC(F)F)c1cc(Cl)cc(NS(=O)(=O)c2cc(Br)ccc2O)c1O` [Example J39, 3-((5-Bromo-2-hydroxyphenyl)sulfonamido)-5-chloro-N-(2,2-difluoroethyl)-2-hydroxybenzamide] was 6.10.
In the case of `COCCNC(=O)c1c(O)c(NS(=O)(=O)c2cc(Br)ccc2O)cc(C2CC2)c1F` [Example J127, 3-((5-Bromo-2-hydroxyphenyl)sulfonamido)-5-cyclopropyl-6-fluoro-2-hydroxy-N-(2-methoxyethyl)benzamide], the pKi was 5.71.
For `COc1cc(F)c(Br)cc1S(=O)(=O)Nc1cc(C2CC2)cc(C(N)=O)c1O` [Example J106, 3-((5-Bromo-4-fluoro-2-methoxyphenyl)sulfonamido)-5-cyclopropyl-2-hydroxybenzamide] the value was 5.82; for `O=C(O)c1cc(Br)cc(S(=O)(=O)Nc2cc(Cl)cc([N+](=O)[O-])c2O)c1O` [NE12], 6.21; for `CNC(=O)c1cc(C2(C#N)CCC2)cc(NS(=O)(=O)c2cc(Br)c(F)cc2OC)c1O` [SN-5, 3-((5-bromo-4-fluoro-2-methoxyphenyl)sulfonamido)-5-(1-cyanocyclobutyl)-2-hydroxy-N-methylbenzamide], 5.58.
With `O=C(NCCN1CCOCC1)c1cc(Cl)cc(NS(=O)(=O)c2cc(Br)ccc2O)c1O` [Example J19, 3-((5-Bromo-2-hydroxyphenyl)sulfonamido)-5-chloro-2-hydroxy-N-(2-morpholinoethyl)benzamide], the pKi was 5.93.
The compound `O=C(c1cc(OC(F)(F)F)cc(NS(=O)(=O)c2cc(Br)ccc2O)c1O)N1CCC[C@H]1CO` [Example J169, (S)-5-Bromo-2-hydroxy-N-(2-hydroxy-3-(2-(hydroxymethyl)pyrrolidine-1-carbonyl)-5-(trifluoromethoxy)phenyl)benzenesulfonamide] gave a pKi of 5.77.
The value for `O=C(N[C@H]1CCOC1)c1cc(OC(F)(F)F)cc(NS(=O)(=O)c2cc(Br)ccc2O)c1O` [Example J168, (S)-3-((5-Bromo-2-hydroxyphenyl)sulfonamido)-2-hydroxy-N-(tetrahydrofuran-3-yl)-5-(trifluoromethoxy)benzamide] was 6.34.
The value for `COc1ccc(Br)cc1S(=O)(=O)Nc1cc(-c2ccccc2)cc(C(=O)O)c1O` [Example J183, 5-((5-Bromo-2-methoxyphenyl)sulfonamido)-4-hydroxy-[1,1′-biphenyl]-3-carboxylic acid] was 5.62.
For `CS(=O)(=O)c1cc(Cl)cc(NS(=O)(=O)c2cc(Br)cc(OC(F)(F)F)c2O)c1` [Example S4, 5-Bromo-N-(3-chloro-5-(methylsulfonyl)phenyl)-2-hydroxy-3-(trifluoromethoxy)benzenesulfonamide] the value was 6.07.

The values above are taken from patent US12398097B2, “WDR5-MYC inhibitors” (Vanderbilt University, priority 2019, dated 2025).
